The results in this text go back to the OligoGym collection.

Oligonucleotides are written 5' to 3', each unit as a sugar letter and its base; * is a phosphorothioate linkage, no mark a phosphodiester; rarer units and linkages stand in square brackets, end groups in braces. Plain capitals give the bases only. d = 2'-deoxy (DNA); r = 2'-OH (RNA)
Note: test concentration or dose not given here.

The target of the first series is UBE2E3. Kind of series: reporter assay of Huesken 2005. The settings on record: siRNA. Background: A reporter such as luciferase makes a cellular process visible.
“sense rArArArArCrCrUrUrCrUrGrCrCrArCrCrCrArGdTdT / antisense rCrUrGrGrGrUrGrGrCrArGrArArGrGrUrUrUrUdCdT” yielded a normalised inhibition (eCFP-eYFP dual reporter) of 32.1%.

In turn, “sense rArArArGrGrUrUrArCrUrUrUrCrCrGrCrArCrCdTdT / antisense rGrGrUrGrCrGrGrArArArGrUrArArCrCrUrUrUdGdG” returned a normalised inhibition (eCFP-eYFP dual reporter) of 50.7%.

“sense rArArCrArGrArGrCrArGrArArCrArCrGrArCrAdTdT / antisense rUrGrUrCrGrUrGrUrUrCrUrGrCrUrCrUrGrUrUdGdG” came in with a normalised inhibition (eCFP-eYFP dual reporter) of 76.9%.

With “sense rArArCrArGrUrCrArGrGrGrArGrUrCrArUrCrUdTdT / antisense rArGrArUrGrArCrUrCrCrCrUrGrArCrUrGrUrUdGdA”, the normalised inhibition (eCFP-eYFP dual reporter) is 58.5%.

Substance “sense rArArCrUrCrUrCrUrArGrCrArArArArCrCrArCdTdT / antisense rGrUrGrGrUrUrUrUrGrCrUrArGrArGrArGrUrUdTdG” came in with a normalised inhibition (eCFP-eYFP dual reporter) of 52.4%.

Take “sense rArArGrGrArGrArUrArArCrArUrUrUrArUrGrAdTdT / antisense rUrCrArUrArArArUrGrUrUrArUrCrUrCrCrUrUdTdA”: the normalised inhibition (eCFP-eYFP dual reporter) was determined as 52%.

Take “sense rArArUrUrCrArGrArArGrGrArGrCrUrArGrCrUdTdT / antisense rArGrCrUrArGrCrUrCrCrUrUrCrUrGrArArUrUdCdT”: the normalised inhibition (eCFP-eYFP dual reporter) worked out at 71.2%.

“sense rArCrArCrCrArArArCrUrCrUrCrUrArGrCrArAdTdT / antisense rUrUrGrCrUrArGrArGrArGrUrUrUrGrGrUrGrUdTdT” came in with a normalised inhibition (eCFP-eYFP dual reporter) of 90.1%.

“sense rArCrArGrGrArUrArGrCrCrArGrArCrArGrUrGdTdT / antisense rCrArCrUrGrUrCrUrGrGrCrUrArUrCrCrUrGrUdCdG” had a normalised inhibition (eCFP-eYFP dual reporter) of 55.2%.

Consider “sense rArCrArUrCrArArCrArGrUrCrArGrGrGrArGrUdTdT / antisense rArCrUrCrCrCrUrGrArCrUrGrUrUrGrArUrGrUdTdG”, for which the normalised inhibition (eCFP-eYFP dual reporter) is 69.9%.

Consider “sense rArCrUrArUrUrUrCrArArArGrGrUrUrUrUrGrCdTdT / antisense rGrCrArArArArCrCrUrUrUrGrArArArUrArGrUdCdA”, for which the normalised inhibition (eCFP-eYFP dual reporter) came to 34.3%.

As to “sense rArCrUrGrCrArArCrCrCrUrGrCrGrGrArUrCrCdTdT / antisense rGrGrArUrCrCrGrCrArGrGrGrUrUrGrCrArGrUdCdT”, the normalised inhibition (eCFP-eYFP dual reporter) was 71.1%.

Take “sense rArGrArUrCrArArCrUrArUrArCrUrUrGrGrUrCdTdT / antisense rGrArCrCrArArGrUrArUrArGrUrUrGrArUrCrUdCdC”: the normalised inhibition (eCFP-eYFP dual reporter) was 52.8%.

The substance “sense rArGrCrCrUrGrArArGrArArCrArArGrArGrGrAdTdT / antisense rUrCrCrUrCrUrUrGrUrUrCrUrUrCrArGrGrCrUdCdT” had a normalised inhibition (eCFP-eYFP dual reporter) of 89%.

Substance “sense rArGrCrUrGrArArArUrArArCrCrCrUrUrGrArUdTdT / antisense rArUrCrArArGrGrGrUrUrArUrUrUrCrArGrCrUdAdG” gave a normalised inhibition (eCFP-eYFP dual reporter) of 82%.

Substance “sense rArGrUrCrCrCrGrCrUrUrUrGrArCrUrArUrUrUdTdT / antisense rArArArUrArGrUrCrArArArGrCrGrGrGrArCrUdCdC” registered a normalised inhibition (eCFP-eYFP dual reporter) of 56.7%.

“sense rArUrArGrCrCrArCrUrCrArGrUrArUrUrUrGrAdTdT / antisense rUrCrArArArUrArCrUrGrArGrUrGrGrCrUrArUdGdC” had a normalised inhibition (eCFP-eYFP dual reporter) of 88.7%.

“sense rArUrCrArArCrArGrUrCrArGrGrGrArGrUrCrAdTdT / antisense rUrGrArCrUrCrCrCrUrGrArCrUrGrUrUrGrArUdGdT” showed a normalised inhibition (eCFP-eYFP dual reporter) of 70.5%.

Consider “sense rArUrCrArArCrUrArUrArCrUrUrGrGrUrCrCrAdTdT / antisense rUrGrGrArCrCrArArGrUrArUrArGrUrUrGrArUdCdT”, for which the normalised inhibition (eCFP-eYFP dual reporter) is 59.5%.

Another series deals with UBE2G1. The experiment in a line: reporter assay of Huesken 2005. As to conditions: siRNA.
The substance “sense rGrCrUrGrCrGrArArArGrArArUrGrGrArGrGrGdTdT / antisense rCrCrCrUrCrCrArUrUrCrUrUrUrCrGrCrArGrCdAdT” showed a normalised inhibition (eCFP-eYFP dual reporter) of 63.8%.

As for “sense rGrCrUrGrGrCrUrCrCrCrUrArUrCrCrArCrArCdTdT / antisense rGrUrGrUrGrGrArUrArGrGrGrArGrCrCrArGrCdGdT”, the normalised inhibition (eCFP-eYFP dual reporter) was 64%.

The substance “sense rGrGrArArArCrCrArUrCrArUrGrArUrUrArGrUdTdT / antisense rArCrUrArArUrCrArUrGrArUrGrGrUrUrUrCrCdAdC” came in with a normalised inhibition (eCFP-eYFP dual reporter) of 54.4%.

On to “sense rGrGrArArGrUrCrCrUrUrArUrUrArUrUrGrGrCdTdT / antisense rGrCrCrArArUrArArUrArArGrGrArCrUrUrCrCdCdA”, for which the normalised inhibition (eCFP-eYFP dual reporter) amounted to 71%.

The substance “sense rGrGrCrUrUrUrUrCrUrGrCrArGrGrUrUrUrArAdTdT / antisense rUrUrArArArCrCrUrGrCrArGrArArArArGrCrCdTdT” returned a normalised inhibition (eCFP-eYFP dual reporter) of 83.3%.

Substance “sense rGrGrUrGrArUrGrUrGrUrGrCrArUrUrUrCrUrAdTdT / antisense rUrArGrArArArUrGrCrArCrArCrArUrCrArCrCdAdT” displayed a normalised inhibition (eCFP-eYFP dual reporter) of 94.7%.

For the substance “sense rGrUrUrArUrGrArArArArGrCrCrArGrArGrGrAdTdT / antisense rUrCrCrUrCrUrGrGrCrUrUrUrUrCrArUrArArCdCdA”, the normalised inhibition (eCFP-eYFP dual reporter) stood at 49.3%.

The substance “sense rUrArCrCrGrArUrGrGrGrArArGrUrCrCrUrUrAdTdT / antisense rUrArArGrGrArCrUrUrCrCrCrArUrCrGrGrUrAdGdA” registered a normalised inhibition (eCFP-eYFP dual reporter) of 93.1%.

“sense rUrArUrCrCrArCrArCrUrGrUrGrGrArArArCrCdTdT / antisense rGrGrUrUrUrCrCrArCrArGrUrGrUrGrGrArUrAdGdG” showed a normalised inhibition (eCFP-eYFP dual reporter) of 41.2%.

Substance “sense rUrArUrGrGrUrUrArUrGrArArArArGrCrCrArGdTdT / antisense rCrUrGrGrCrUrUrUrUrCrArUrArArCrCrArUrAdCdT” yielded a normalised inhibition (eCFP-eYFP dual reporter) of 31.8%.

“sense rUrCrArUrGrArGrCrCrUrGrGrGrGrArArGrArUdTdT / antisense rArUrCrUrUrCrCrCrCrArGrGrCrUrCrArUrGrAdAdG”: the normalised inhibition (eCFP-eYFP dual reporter) stood at 76.4%.

On to “sense rUrCrCrArCrArCrUrGrUrGrGrArArArCrCrArUdTdT / antisense rArUrGrGrUrUrUrCrCrArCrArGrUrGrUrGrGrAdTdA”, for which the normalised inhibition (eCFP-eYFP dual reporter) amounted to 85.3%.

“sense rUrCrCrCrUrArUrCrCrArCrArCrUrGrUrGrGrAdTdT / antisense rUrCrCrArCrArGrUrGrUrGrGrArUrArGrGrGrAdGdC” showed a normalised inhibition (eCFP-eYFP dual reporter) of 62.1%.

As for “sense rUrCrCrUrUrArUrUrArUrUrGrGrCrCrCrUrCrCdTdT / antisense rGrGrArGrGrGrCrCrArArUrArArUrArArGrGrAdCdT”, the normalised inhibition (eCFP-eYFP dual reporter) was determined as 44.7%.

Consider “sense rUrCrUrGrCrArGrGrUrUrUrArArUrArGrArUrGdTdT / antisense rCrArUrCrUrArUrUrArArArCrCrUrGrCrArGrAdAdA”, for which the normalised inhibition (eCFP-eYFP dual reporter) stood at 60.6%.

Regarding “sense rUrCrUrGrGrCrArCrCrCrArArArUrGrUrUrGrAdTdT / antisense rUrCrArArCrArUrUrUrGrGrGrUrGrCrCrArGrAdTdT”, the normalised inhibition (eCFP-eYFP dual reporter) stood at 73.4%.

On to “sense rUrGrArArArArGrCrCrArGrArGrGrArArCrGrCdTdT / antisense rGrCrGrUrUrCrCrUrCrUrGrGrCrUrUrUrUrCrAdTdA”, for which the normalised inhibition (eCFP-eYFP dual reporter) worked out at 35.9%.

On to “sense rUrGrArArArUrUrCrArUrUrArCrArGrArArArUdTdT / antisense rArUrUrUrCrUrGrUrArArUrGrArArUrUrUrCrAdTdT”, for which the normalised inhibition (eCFP-eYFP dual reporter) was determined as 61.6%.

“sense rUrGrArUrGrUrGrUrGrCrArUrUrUrCrUrArUrUdTdT / antisense rArArUrArGrArArArUrGrCrArCrArCrArUrCrAdCdC” showed a normalised inhibition (eCFP-eYFP dual reporter) of 74.8%.

Substance “sense rUrGrArUrUrArGrUrGrUrCrArUrUrUrCrUrArUdTdT / antisense rArUrArGrArArArUrGrArCrArCrUrArArUrCrAdTdG” had a normalised inhibition (eCFP-eYFP dual reporter) of 78.5%.

Turning to “sense rUrGrCrCrCrGrCrUrGrUrGrUrArArGrArArArAdTdT / antisense rUrUrUrUrCrUrUrArCrArCrArGrCrGrGrGrCrAdAdC”, the normalised inhibition (eCFP-eYFP dual reporter) turned out to be 94.3%.

Consider “sense rUrGrCrGrArArArGrArArUrGrGrArGrGrGrArAdTdT / antisense rUrUrCrCrCrUrCrCrArUrUrCrUrUrUrCrGrCrAdGdC”, for which the normalised inhibition (eCFP-eYFP dual reporter) was 72.7%.

Regarding “sense rUrGrCrUrGrCrGrArArArGrArArUrGrGrArGrGdTdT / antisense rCrCrUrCrCrArUrUrCrUrUrUrCrGrCrArGrCrAdTdC”, the normalised inhibition (eCFP-eYFP dual reporter) is 34.4%.

In the case of “sense rUrGrGrArGrArArUrUrUrArArArArGrArArArAdTdT / antisense rUrUrUrUrCrUrUrUrUrArArArUrUrCrUrCrCrAdTdT”, the normalised inhibition (eCFP-eYFP dual reporter) was determined as 74.2%.

As to “sense rUrGrGrUrGrArUrGrUrGrUrGrCrArUrUrUrCrUdTdT / antisense rArGrArArArUrGrCrArCrArCrArUrCrArCrCrAdTdT”, the normalised inhibition (eCFP-eYFP dual reporter) stood at 85%.

The substance “sense rUrUrArGrUrGrUrCrArUrUrUrCrUrArUrGrCrUdTdT / antisense rArGrCrArUrArGrArArArUrGrArCrArCrUrArAdTdC” gave a normalised inhibition (eCFP-eYFP dual reporter) of 54%.

As for “sense rUrUrCrUrArUrGrCrUrGrGrCrArGrArCrCrCrUdTdT / antisense rArGrGrGrUrCrUrGrCrCrArGrCrArUrArGrArAdAdT”, the normalised inhibition (eCFP-eYFP dual reporter) was determined as 61%.

In the case of “sense rUrUrUrArArArArGrArArArArGrUrUrGrCrCrCdTdT / antisense rGrGrGrCrArArCrUrUrUrUrCrUrUrUrUrArArAdTdT”, the normalised inhibition (eCFP-eYFP dual reporter) came out at 43.5%.

“sense rUrUrUrCrUrArUrUrCrUrUrCrArUrGrArGrCrCdTdT / antisense rGrGrCrUrCrArUrGrArArGrArArUrArGrArArAdTdG” returned a normalised inhibition (eCFP-eYFP dual reporter) of 29.5%.

Substance “sense rUrUrUrCrUrGrCrArGrGrUrUrUrArArUrArGrAdTdT / antisense rUrCrUrArUrUrArArArCrCrUrGrCrArGrArArAdAdG” came in with a normalised inhibition (eCFP-eYFP dual reporter) of 51.7%.
